Measurements as given in US10670605B2, “Cysteine reactive probes and uses thereof” (The Scripps Research Institute, priority 2015, dated 2020).
pIC50: −log10 of the molar value. Blank lines part the entries; values can stand above or below the compound they belong to. *: point of attachment. Cbz = O=C(OCc1ccccc1)*; CH2F = FC*

What was measured:
[1] = target: T1, active CASP10 (Homo sapiens, UniProt Q92851); test: Active CASP10 activity assay (AEVD-AMC substrate); type: biochemical; details: fragments 25 μM; DEVD-CHO 20 μM
T1 sequence (Q92851 220-415 limits assumed): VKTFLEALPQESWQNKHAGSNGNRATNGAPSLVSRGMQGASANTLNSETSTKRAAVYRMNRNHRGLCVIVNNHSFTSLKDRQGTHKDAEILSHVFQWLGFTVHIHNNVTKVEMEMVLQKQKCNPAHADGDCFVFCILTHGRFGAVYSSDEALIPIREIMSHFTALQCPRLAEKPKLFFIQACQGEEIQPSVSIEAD
T1 sequence (Q92851 416-521 limits assumed): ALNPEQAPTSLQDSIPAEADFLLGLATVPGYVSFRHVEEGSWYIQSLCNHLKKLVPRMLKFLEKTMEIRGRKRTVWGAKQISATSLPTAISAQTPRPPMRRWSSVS

[2] = target: T2, active CASP8 (Homo sapiens, UniProt Q14790); test: Rho-DEVD-AOMK probe labeling of active CASP8; details: 7 50 μM; Ac-DEVD-CHO 20 μM
T2 sequence (Q14790 217-374 limits assumed): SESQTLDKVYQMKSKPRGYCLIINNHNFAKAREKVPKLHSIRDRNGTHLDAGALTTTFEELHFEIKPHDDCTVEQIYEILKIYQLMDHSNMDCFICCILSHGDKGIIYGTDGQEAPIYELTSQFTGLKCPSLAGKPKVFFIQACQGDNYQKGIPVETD
T2 sequence (Q14790 385-479 limits assumed): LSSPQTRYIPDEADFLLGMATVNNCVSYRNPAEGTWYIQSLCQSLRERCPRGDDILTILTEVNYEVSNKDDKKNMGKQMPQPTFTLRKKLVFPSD

[3] = target: T2, active CASP8; test: CASP8 in vitro activity assay (substrate); type: biochemical; design: recombinant, purified active-CASP8 and active-CASP3 added to MDA-MB-231 cell lysates; His6 (C); made in house; host or cells: E. coli BL21(DE3)pLysS; details: fragments 100 μM; DEVD-CHO 20 μM
Procedure: Caspase 3 and 8 assays were conducted with CASP8 activity assay kit (BioVision, K112-100) and Caspase 3 activity assay kit (Invitrogen, EnzChek® Caspase-3 Assay Kit), following the manufacturer's instructions. Briefly, recombinant Caspase 3 (10 μM) was added to soluble Ramos lysates (1 mg/mL) to a 100 nM final concentration of protease. Caspase 8 (30 μM) was added to soluble Ramos lysates to a 1 μM final concentration of protease. In triplicate, 50 μL lysate was treated with either DMSO, DEVD-CHO (“DEVD” disclosed as SEQ ID NO: 857) (20 μM) or the indicated compounds (100 μM) for 1 h, following which 50 μL of 2× reaction buffer containing 10 mM DTT and 5 μL substrate (4 mM stock in DMSO of IETD-AFC (“IETD” disclosed as SEQ ID NO: 858) for CASP8; 10 mM stock in DMSO of DEVD-AMC (“DEVD” disclosed as SEQ ID NO: 857) for CASP3) was added to each well and the samples were incubated at ambient temperature for 2 h. Caspase activity was measured from the increase in fluorescence (excitation 380 nm emission 460 nm). Experiments were performed in triplicate. Background was calculated from samples lacking the recombinant caspase.

[4] = tested on: Jurkat cells; test: FasL-induced (extrinsic) apoptosis, CellTiter-Glo viability; type: cell-based, human
[5] = tested on: Jurkat cells; test: Staurosporine-induced (intrinsic) apoptosis, CellTiter-Glo viability; type: cell-based, human; details: 30 μM (VAD-FMK 100 μM), 30 min before STS, 6 h
Procedure: 4 mL of Jurkat cells in RPMI (1.5 million cells/mL) were treated with the indicated compound at 30 μM for 30 min (50 mM stock solution in DMSO). Z-VAD-FMK (EMD Millipore Biosciences, 627610) and was used at a final concentration of 100 μM. After pre-incubation, FASL (4 μL of […] stock solution of SuperFasLigandm in water, final concentration=100 ng/mL, Enzo life Sciences) or staurosporine (8 μL of 1 mM stock solution in DMSO, final concentration=2 μM, Fisher Scientific, 50664333). […] The gels were transferred to nitrocellulose membranes and were immunoblotted overnight with the indicated antibodies. For measurements of cell viability, in quadruplicate for each condition, 150,000 cells (100 μL of 1.5 million cells/mL) were plated in Nunc™ MicroWell™ 96-Well Optical-Bottom Plates with Polymer Base (Fisher Scientific). Compounds, FASL and STS were used at the same concentrations indicated above with a 30 minute pre-incubation with compound, followed by 6 hours with either STS or FASL or DMSO. Cell viability was measured with CellTiter-Glo® Luminescent Cell Viability Assay (Promega) and was read on a Biotech Synergy 4 plate reader.

[6] = target: T3, pro-CASP8 (Homo sapiens, UniProt Q14790, D374A/D384A); test: Click probe 61 labeling of pro-CASP8 and its competition; type: binding; details: 300 nM protein in MDA-MB-231 lysate; read-out: apparent IC50 for blockade of 61 labeling of pro-CASP8
T3 construct: a truncated CASP8 (residues 217-479) without the CARD domain; His6 (C); made in house; host or cells: E. coli BL21(DE3)pLysS
T3 sequence (Q14790 217-479 D374A/D384A): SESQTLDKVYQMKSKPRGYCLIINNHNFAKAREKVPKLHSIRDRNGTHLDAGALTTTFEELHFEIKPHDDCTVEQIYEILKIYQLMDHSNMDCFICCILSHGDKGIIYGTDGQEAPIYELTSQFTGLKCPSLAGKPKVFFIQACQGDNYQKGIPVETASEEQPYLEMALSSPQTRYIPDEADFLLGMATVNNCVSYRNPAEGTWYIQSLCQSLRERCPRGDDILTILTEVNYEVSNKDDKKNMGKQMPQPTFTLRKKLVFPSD

[7] = target: pro-CASP10 (Homo sapiens, UniProt Q92851); test: Blockade of probe 61 labeling of pro-CASP10; type: binding; details: 300 nM protein in MDA-MB-231 lysate; read-out: apparent IC50 for blockade of 61 labeling of pro-CASP10
Sequence of pro-CASP10 (Q92851 220-521): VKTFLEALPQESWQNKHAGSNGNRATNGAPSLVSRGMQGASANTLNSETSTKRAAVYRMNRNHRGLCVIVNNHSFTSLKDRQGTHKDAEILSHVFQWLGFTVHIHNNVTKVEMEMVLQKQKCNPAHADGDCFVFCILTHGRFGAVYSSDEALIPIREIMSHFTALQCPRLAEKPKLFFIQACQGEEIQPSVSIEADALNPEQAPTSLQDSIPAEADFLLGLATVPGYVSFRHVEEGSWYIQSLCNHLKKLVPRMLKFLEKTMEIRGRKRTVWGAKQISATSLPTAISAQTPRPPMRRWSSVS

[8] = tested on: primary human T cells; test: FasL-induced apoptosis in activated primary T cells; type: cell-based; details: anti-CD3, anti-CD28-activated primary human T cells
[9] = target: T4, CASP8 (Homo sapiens, UniProt Q14790); test: Quantitative proteomics (ABPP-SILAC) with probe 61 in cells; type: cell-based; details: primary human T cells and Jurkat cells
T4 construct: caspases measured by quantitative proteomics in Jurkat cells treated with 7, 63-R, or 62 followed by probe 61; endogenous in cells; host or cells: Jurkat cells (SILAC), treated in situ
T4 sequence (Q14790 217-479): as the sequence (Q14790 217-479 D374A/D384A) above, with A158D, A168D counted along it

activity of active CASP10 (substrate assay) [1]: inhibited
Rho-DEVD-AOMK labeling of active CASP8 [2]: blocked
CASP8 activity (substrate assay) [3]: blocked
Compound: Ac-DEVD-CHO [reference compound]

Compound: Cbz-Val-Ala-Asp-CH2F [reference compound]
FasL-induced apoptosis ([4]; 30 μM (VAD-FMK 100 μM), 30 min before FASL, 6 h): prevented
STS-induced intrinsic apoptosis [5]: prevented

pIC50 [6]: 6.15
pIC50 [7]: < 4.00
blockade of CASP8 (chemical proteomics with probe 61) [9]: inhibited
Compound: O=C(c1ccc(N2CCOCC2)cc1)N1CCC[C@@H](N(C(=O)CCl)c2ccccc2)C1 [63-R]
FasL-induced apoptosis ([4]; Jurkat cells, concentration series, 4 h): fully blocked
FasL-induced apoptosis [8]: substantial resistance
